Laboratory results published in US5597824A, “Analogs of oxetanyl purines and pyrimidines” (Abbott Laboratories, priority 1992, dated 1997).
In brackets after ≈: the same amount, converted by molar mass.

What was measured:
Vero cells = experiment: Cell viability (MTT) of uninfected test-compound control wells; assay type: cell-based, African green monkey; settings: cell viability reduced by 25%
Description: Vero cells were pregrown as monolayers in wells of COSTAR 96-well tisue culture plates using suitable cell culture media. Stock viruses were pretitered according to the method of Reed and Muench (Amer. J. Hyg. 27 493 (1938)) and diluted in cell culture medium to yield 32 CCID50 (cell culture infectious dose, 50%) units per 0.1 mL. Antiviral assays were designed to test six concentrations of each compound, from cytotoxic to noncytotoxic levels, in triplicate against each of the challenge viruses in microtiter plate wells containing cell monolayers. To each of the replicate cell cultures were added 0.1 mL of the test-compound solution and 0.1 mL of virus suspension. Two compounds were evaluated per plate. The following controls were included:
(3) Test-compound cytotoxicity controls containing uninfected, test-compound treated cells;
The covered plates were incubated at 37° C. in a humidified atmosphere containing 2% CO2. When cytopathogenic effect (CPE) in untreated virus control wells reached 100%, 20 μL of 3-(4,5-dimethyl-thiazol-2-yl)-2,5-diphenyl tetrazolium bromide (MTT) (dissolved in PBS at 5 mg/mL) was pipetted into each of the plate wells. The plates were incubated at 37° C. for six hours; then 40 μL of 30% SDS (in 0.02N HCl) was added to each well. After overnight incubation at 37° C. the blue color or the MTT formazan was measured spectrophotometrically at 570 nm. The optical density (OD) value of each culture is a function of the amount of formazan produced which is proportional to the number of viable cells. A computer program was utilized to calculate the percent (CPE) reciprocal of % CPE reduction) of the virus-infected wells and % cell viability of the uninfected test-compound control wells.
The IC50 value is the minimum test-compound concentration (μg/mL) that inhibited CPE by 50%, calculated by using a regression analysis program for semilog curve fitting. The TC25 value is the minimum test-compound concentration (μg/mL) that reduced cell viability by 25%.

[1] = tested on: Herpes simplex type 1 (HSV-1) strain E-377; experiment: CPE-inhibition assay, HSV-1 strain E-377 in Vero cells; assay type: cell-based, Herpes simplex virus type 1; settings: HSV-1 (E-377), minimum cytotoxic concentration / ID50
Description: (§1) The challenge viruses were propagated and assayed in cells that were pregrown as monolayer cultures in plastic tissue culture flasks and 96-well plates, using cell culture media appropriate for the host cell cultures. The following viruses and host cell cultures were employed:
(§2) green monkey kidney (Vero)
(§3) On the day of use, a weighed sample of each compound to be evaluated was dissolved and diluted in serial 10^0.5 dilutions in the culture medium appropriate for each virus-host cell system.
Mammalian cells were pregrown as monolayers in wells of COSTAR 96-well tissue culture plates using suitable cell culture media. Stock viruses were pretitered according to the method of Reed and Muench (Amer. J. Hyg. 27:493-497, 1938) and diluted in cell culture medium to yield 32 CCID50 (cell culture infectious dose, 50%) units per 0.1 ml. Antiviral assays were designed to test seven concentrations of each compound, from cytotoxic to noncytotoxic levels, in triplicate against each of the challenge viruses in microtiter plate wells containing suitable cell monolayers. To each of the replicate cell cultures were added 0.1 ml of the test drug solution and 0.1 ml of virus suspension. Cell controls containing medium alone, virus controls containing medium and virus, and drug cytotoxicity controls containing medium and each drug concentration were run simultaneously with the test samples assayed in each experiment. […]
(§4) Antiviral activity was determined by calculating the degree of inhibition of virus-induced CPE in drug-treated, virus-infected cell cultures by means of a virus rating (VR). The VR is a standard weighted measurement of antiviral activity taking into account both the degree of CPE inhibition and drug cytotoxicity, and is determined by a modification of the method of Ehrlich et al. (Ann. N.Y. Acad. Sci. 130: 5-16, 1965) as described below. […]
(§5) The VR was calculated as 0.1 of the sum of the numerical differences between the recorded CPE grade of each test well and that of the corresponding virus control in the culture plate. […]

[2] = tested on: Herpes simplex type 2 (HSV-2) strain MS; experiment: CPE-inhibition assay, HSV-2 strain MS in Vero cells; assay type: cell-based, Herpes simplex virus type 2; settings: HSV-2 (MS), minimum cytotoxic concentration / ID50
Description: as §1, §2, §3
Mammalian cells were pregrown as monolayers in wells of COSTAR 96-well tissue culture plates using suitable cell culture media. […]
as §4, §5

[3] = tested on: Human Cytomegalovirus (HCMV) strain AD169; experiment: Virus yield reduction assay, HCMV in MRC5 cells; assay type: cell-based
Description: Human diploid embryonic lung (MRC5) cells were grown in 35 mm wells of 6-well tissue culture plates. Subconfluent cell monolayers were rinsed with phosphate-buffered saline (PBS) and were exposed to 0.5 ml/well of HCMV (strain AD169) suspension for 1.5 hours at 37° C. The virus suspension was diluted in MEM+2% fetal bovine serum (FBS) to yield a multipicity of infection (MOI) of approximately 0.1 plaque forming units (PFU)/cell. Following the virus adsorption period, the inocula were removed and infected cell layers were rinsed with PBS. Aliquiots (2.0 ml) of each test drug concentration (dissolved in MEM supplemented with 2% FBS) were dispensed into triplicate cell cultures: two virus-infected cultures and one uninfected cytotoxicity control culture (exposed to medium without virus for 1.5 hours). Untreated virus-infected control cultutres and untreated, uninfected cell control cutures were fed with medium alone. The culture plates were incubated at 37° C. in a humidified atmosphere of 2% CO2 in air. All cell culture fluids were replaced with fresh drug and medium 48 hours postinfection (p.i.). On Day 6 p.i., the cell layers were examined microscopically for cytopathogenic effect (CPE) and drug cytotoxicity. The test and virus control cultures were then harvested by subjecting the cell layers to one cycle of freeze-thawing. The cellular material was scraped into the ambient medium and the contents from replicate cultures were pooled, dispensed into cryotubes and stored at -135° C. The harvested test and virus control samples were thawed and the infectious virus yield was determined by plaque assay in MRC5 cells grown in 12-well cluster plates. Inhibiton of HCMV replication by each test compound was determined by comparing the progeny virus yields in the drug-treated cultures with the progeny virus yeild in the untreated, virus-infected control cultures.

Q: Which TC25 (Vero cells; HSV-1 (E-377) line) does the source give for `O=c1[nH]c(=O)n([C@@H]2O[C@H](CO)[C@H]2CO)cc1I` [Example 42, 1-([2'R, 3'R, 4'S]-3', 4'-Bis(hydroxmethyl)-2'-oxetanyl)-5-iodouracil] here?
A: > 354 µg/mL

Q: What about the TC25 (Vero cells; HSV-2 (MS) line) of the same compound?
A: > 354 µg/mL

Q: Which TC25 (Vero cells; HSV-1 (E-377) line) does the source give for `O=c1[nH]c(=O)n([C@@H]2O[C@H](CO)[C@H]2CO)cc1C=CBr` [Example 44, 1-([2'R, 3'R, 4'S]-3', 4'-Bis(hydroxmethyl)-2'-oxetanyl)-5-(2-bromo-1-vinyl)uracil] here?
A: 289 µg/mL (≈ 868 µM)

Q: Which TC25 (Vero cells; HSV-2 (MS) line) does the source give for `C=Cc1cn([C@@H]2O[C@H](CO)[C@H]2CO)c(=O)[nH]c1=O` [Example 61, 1-([2'R, 3'R, 4'S]-3',4'-Bis(hydroxmethyl)-2'-oxetanyl)-5-vinyluracil] here?
A: ≥ 254 µg/mL

Q: Which results are given for `Nc1ccn([C@@H]2O[C@H](CO)[C@H]2CO)c(=O)n1` [Example 22, 1-([2'R,3'R,4'S]-3',4'-Bis(hydroxmethyl)-2'-oxetanyl)cytosine]?
A: TI (Therapeutic Index) [1]: 13.1; TI (Therapeutic Index) [2]: 9.7; HCMV yield ([3]; 0.032 μg/ml): 3.8 log10 PFU/ml; HCMV yield ([3]; 0.1 μg/ml): 3.1 log10 PFU/ml; HCMV yield ([3]; 0.32 μg/ml): 2.6 log10 PFU/ml; HCMV yield ([3]; 1.0 μg/ml): 0.4 log10 PFU/ml; HCMV yield ([3]; 3.2 μg/ml): < 0.1 log10 PFU/ml; HCMV yield ([3]; 10 μg/ml): < 0.1 log10 PFU/ml

Q: Which results are given for `O=c1ccn([C@@H]2O[C@H](CO)[C@H]2CO)c(=O)[nH]1` [Example 23, 1-([2'R,3'R,4'S]-3',4'-Bis(hydroxmethyl)-2'-oxetanyl)uracil]?
A: TI (Therapeutic Index) [1]: 1.0; HCMV yield ([3]; 3.2 μg/ml): 4.7 log10 PFU/ml; HCMV yield ([3]; 10 μg/ml): 4.5 log10 PFU/ml; HCMV yield ([3]; 32 μg/ml): 4.4 log10 PFU/ml; HCMV yield ([3]; 100 μg/ml): 4.0 log10 PFU/ml; HCMV yield ([3]; 320 μg/ml): 3.0 log10 PFU/ml

Q: With `O=c1[nH]c(=O)n([C@@H]2O[C@H](CO)[C@H]2CO)cc1Br` [Example 43, 1-([2'R, 3'R, 4'S]-3', 4'-Bis(hydroxmethyl)-2'-oxetanyl)-5-bromouracil] as the compound, how does the TC25 (Vero cells; HSV-1 (E-377) line) read?
A: 18.4 µg/mL (≈ 59.9 µM)

Q: What about the TC25 (Vero cells; HSV-2 (MS) line) of the same compound?
A: > 307 µg/mL

Q: With `O=c1[nH]c(=O)n([C@@H]2O[C@H](CO)[C@H]2CO)cc1C=CI` [Example 49, 1([2'R,3'R,4'S]-3',4'-n-Bis(hydroxmethyl)-2'-oxetanyl)-5-(2-iodo-1-vinyl)uracil] as the compound, how does the TC25 (Vero cells; HSV-1 (E-377) line) read?
A: > 380 µg/mL

Q: How did the “TI (Therapeutic Index)” value [1] turn out when `Cc1cn([C@@H]2O[C@H](CO)[C@H]2CO)c(=O)[nH]c1=O` [Example 21, 1-([2'R,3'R,4'S]-3',4'-Bis(hydroxmethyl)-2'-oxetanyl)5-methyluracil] was run?
A: 1552

Q: And the “TI (Therapeutic Index)” value [2]?
A: > 7.2

Q: How did the TC25 (Vero cells; HSV-1 (E-377) line) turn out when `O=c1[nH]c(=O)n([C@@H]2O[C@H](CO)[C@H]2CO)cc1C=CCl` [Example 50, 1-([2'R,3'R,4'S]-3',4'-Bis(hydroxymethyl)-2'-oxetanyl)-5-(2-chloro-1-vinyl)uracil] was run?
A: > 289 µg/mL
